Results on one compound are retold here after US20040213743A1, “Sensorially active substances embedded in plastic” (priority 1996, published 2004).

Read-outs that look alike come from different tables or passages of the source.

One data set has as its system rats. The data set can be described thus: rats gnawing on denatonium benzoate-treated flexible PVC. It is filed as in vivo.
The nature of data set [1]: solubility in plastic and solvents. The conditions noted are these: molten flexible PVC. Format: physicochemical.
For data set [2] the following is noted: cited from earlier work.
For data set [3] the following is noted: cited from earlier work. This is another data set of the same source.
The mark [4] stands for this setting: approximately 0.2 grams of denatonium benzoate in 100 grams of clear flexible PVC.

For `CC[N+](CC)(CC(=O)Nc1c(C)cccc1C)Cc1ccccc1` [denatonium benzoate], the “deterrence of gnawing on the PVC” value is “does not deter rats from gnawing and eating the PVC” in the data set on rats (setting [4]); “quite effective in discouraging rats from gnawing on the plastic” in the data set with rats (approximately 2.5 grams of denatonium benzoate in 100 grams of clear flexible PVC, also when sample thoroughly washed). Besides, in the data set with rats (setting [4]), the “effect on rats which ingest the treated PVC” value is given as “pronounced soporific effect”. The “solubility in polyvinyl chloride (PVC)” value in data set [1] is listed as “readily dissolves”; in data set [1] (listed as Bitrex™), “soluble in PVC”. The skin irritation entry is listed as “does not irritate the skin” in data set [2] (at concentrations of 0.05%) and “non-irritating to the skin” in data set [2] (even in fairly high concentrations). In data set [3] (benzene and chloroform), the “solubility in organic solvents” value is on record as “readily soluble”. Moreover, in data set [3] (ether), the solubility in ether result is “nearly insoluble”.
